Laboratory results reported in the NIST ThermoML archive (doi:10.1016/j.jct.2016.10.023).
± gives the expanded uncertainty stated by the source.

Assay: xn = mol fraction of the nth substance listed
Conditions: Constant-volume piezometry

CCCCC [pentane] + CCCO
Conditions	mass density [kg/m3]
523.15 K, 6963 kPa, Fluid (supercritical or subcritical phases), x1 = 0.8	258.57 ± 1.3
523.15 K, 7242 kPa, Fluid (supercritical or subcritical phases), x1 = 0.8	272.53 ± 1.4
523.15 K, 7295 kPa, Fluid (supercritical or subcritical phases), x1 = 0.9	282.01 ± 1.4
523.15 K, 7431 kPa, Fluid (supercritical or subcritical phases), x1 = 0.5	320 ± 1.8
523.15 K, 7549 kPa, Fluid (supercritical or subcritical phases), x1 = 0.5	325.27 ± 1.8
523.15 K, 7577 kPa, Fluid (supercritical or subcritical phases), x1 = 0.2	418.71 ± 2.1
523.15 K, 7600 kPa, Fluid (supercritical or subcritical phases), x1 = 0.8	288.38 ± 1.5
523.15 K, 7736 kPa, Fluid (supercritical or subcritical phases), x1 = 0.9	301.69 ± 1.5
523.15 K, 7896 kPa, Fluid (supercritical or subcritical phases), x1 = 0.8	299.2 ± 1.5
523.15 K, 8097 kPa, Fluid (supercritical or subcritical phases), x1 = 0.5	344.56 ± 1.7
523.15 K, 8118 kPa, Fluid (supercritical or subcritical phases), x1 = 0.9	312.33 ± 1.6
523.15 K, 8453 kPa, Fluid (supercritical or subcritical phases), x1 = 0.8	315.37 ± 1.6
523.15 K, 8992 kPa, Fluid (supercritical or subcritical phases), x1 = 0.9	334.04 ± 1.7
523.15 K, 9070 kPa, Fluid (supercritical or subcritical phases), x1 = 0.5	372.89 ± 1.9
523.15 K, 9148 kPa, Fluid (supercritical or subcritical phases), x1 = 0.8	333.86 ± 1.7
523.15 K, 9669 kPa, Fluid (supercritical or subcritical phases), x1 = 0.8	345.38 ± 1.7
523.15 K, 10260 kPa, Fluid (supercritical or subcritical phases), x1 = 0.9	354.13 ± 1.8
523.15 K, 10494 kPa, Fluid (supercritical or subcritical phases), x1 = 0.5	398.14 ± 2
523.15 K, 10826 kPa, Fluid (supercritical or subcritical phases), x1 = 0.8	361.95 ± 1.8
523.15 K, 11137 kPa, Fluid (supercritical or subcritical phases), x1 = 0.2	470.39 ± 2.4
523.15 K, 12130 kPa, Fluid (supercritical or subcritical phases), x1 = 0.5	417.24 ± 2.1
523.15 K, 14557 kPa, Fluid (supercritical or subcritical phases), x1 = 0.5	440.97 ± 2.2
523.15 K, 15550 kPa, Fluid (supercritical or subcritical phases), x1 = 0.9	407.31 ± 2
523.15 K, 15764 kPa, Fluid (supercritical or subcritical phases), x1 = 0.5	451.29 ± 2.3
523.15 K, 16344 kPa, Fluid (supercritical or subcritical phases), x1 = 0.8	418.23 ± 2.1
523.15 K, 16569 kPa, Fluid (supercritical or subcritical phases), x1 = 0.2	509.61 ± 2.6
523.15 K, 19192 kPa, Fluid (supercritical or subcritical phases), x1 = 0.5	468.18 ± 2.4
523.15 K, 25897 kPa, Fluid (supercritical or subcritical phases), x1 = 0.2	547.05 ± 2.8
523.15 K, 26649 kPa, Fluid (supercritical or subcritical phases), x1 = 0.8	466.73 ± 2.4
523.15 K, 33702 kPa, Fluid (supercritical or subcritical phases), x1 = 0.5	519.37 ± 2.6
523.15 K, 36508 kPa, Fluid (supercritical or subcritical phases), x1 = 0.8	496.15 ± 2.5
523.15 K, 39812 kPa, Fluid (supercritical or subcritical phases), x1 = 0.2	581.35 ± 2.9
533.15 K, 1342 kPa, Gas, x1 = 0.8	22.51 ± 0.07
533.15 K, 1590 kPa, Gas, x1 = 0.2	24.92 ± 0.08
533.15 K, 2034 kPa, Gas, x1 = 0.8	36.67 ± 0.11
533.15 K, 2979 kPa, Gas, x1 = 0.8	58.39 ± 0.18
533.15 K, 3245 kPa, Gas, x1 = 0.2	52.98 ± 0.17
533.15 K, 3545 kPa, Gas, x1 = 0.8	73.76 ± 0.23
533.15 K, 3768 kPa, Fluid (supercritical or subcritical phases), x1 = 0.9	83.34 ± 0.42
533.15 K, 4255 kPa, Gas, x1 = 0.2	91.37 ± 0.29
533.15 K, 4552 kPa, Fluid (supercritical or subcritical phases), x1 = 0.8	106.35 ± 0.54
533.15 K, 4745 kPa, Gas, x1 = 0.2	114.3 ± 0.36
533.15 K, 4839 kPa, Fluid (supercritical or subcritical phases), x1 = 0.9	123.29 ± 0.63
533.15 K, 5078 kPa, Fluid (supercritical or subcritical phases), x1 = 0.9	134.05 ± 0.68
533.15 K, 5281 kPa, Fluid (supercritical or subcritical phases), x1 = 0.2	150.27 ± 0.76
533.15 K, 5454 kPa, Fluid (supercritical or subcritical phases), x1 = 0.8	140.24 ± 0.71
533.15 K, 5541 kPa, Fluid (supercritical or subcritical phases), x1 = 0.2	175.53 ± 1
533.15 K, 5638 kPa, Fluid (supercritical or subcritical phases), x1 = 0.2	189.54 ± 1.1
533.15 K, 5660 kPa, Fluid (supercritical or subcritical phases), x1 = 0.9	163.88 ± 0.83
533.15 K, 5720 kPa, Fluid (supercritical or subcritical phases), x1 = 0.8	155.97 ± 0.8
533.15 K, 5833 kPa, Fluid (supercritical or subcritical phases), x1 = 0.2	219.99 ± 1.1
533.15 K, 5973 kPa, Fluid (supercritical or subcritical phases), x1 = 0.8	169.7 ± 0.87
533.15 K, 5993 kPa, Fluid (supercritical or subcritical phases), x1 = 0.2	245.35 ± 1.4
533.15 K, 6071 kPa, Fluid (supercritical or subcritical phases), x1 = 0.8	175.94 ± 0.89
533.15 K, 6078 kPa, Fluid (supercritical or subcritical phases), x1 = 0.2	259.07 ± 1.4
533.15 K, 6109 kPa, Fluid (supercritical or subcritical phases), x1 = 0.2	262.77 ± 1.4
533.15 K, 6137 kPa, Fluid (supercritical or subcritical phases), x1 = 0.9	189.36 ± 0.96
533.15 K, 6162 kPa, Fluid (supercritical or subcritical phases), x1 = 0.2	272.22 ± 1.5
533.15 K, 6177 kPa, Fluid (supercritical or subcritical phases), x1 = 0.8	180.74 ± 0.92
533.15 K, 6285 kPa, Fluid (supercritical or subcritical phases), x1 = 0.2	290.39 ± 1.5
533.15 K, 6384 kPa, Fluid (supercritical or subcritical phases), x1 = 0.8	193.07 ± 0.98
533.15 K, 6395 kPa, Fluid (supercritical or subcritical phases), x1 = 0.9	202.28 ± 1
533.15 K, 6426 kPa, Fluid (supercritical or subcritical phases), x1 = 0.2	306.67 ± 1.6
533.15 K, 6463 kPa, Fluid (supercritical or subcritical phases), x1 = 0.2	310.9 ± 1.6
533.15 K, 6550 kPa, Fluid (supercritical or subcritical phases), x1 = 0.2	318.61 ± 1.6
533.15 K, 6727 kPa, Fluid (supercritical or subcritical phases), x1 = 0.9	220.58 ± 1.1
533.15 K, 6761 kPa, Fluid (supercritical or subcritical phases), x1 = 0.8	213.75 ± 1.1
533.15 K, 6844 kPa, Fluid (supercritical or subcritical phases), x1 = 0.2	341.09 ± 1.7
533.15 K, 6859 kPa, Fluid (supercritical or subcritical phases), x1 = 0.8	219.51 ± 1.1
533.15 K, 6879 kPa, Fluid (supercritical or subcritical phases), x1 = 0.2	343.88 ± 1.7
533.15 K, 6955 kPa, Fluid (supercritical or subcritical phases), x1 = 0.9	232.95 ± 1.2
533.15 K, 7014 kPa, Fluid (supercritical or subcritical phases), x1 = 0.9	236.41 ± 1.2
533.15 K, 7092 kPa, Fluid (supercritical or subcritical phases), x1 = 0.9	240.81 ± 1.2
533.15 K, 7159 kPa, Fluid (supercritical or subcritical phases), x1 = 0.9	244.12 ± 1.2
